Biological target: T1, GPR23 (Homo sapiens, UniProt Q99677)
T1 construct: gene LPAR4; native receptor in U87 glioma cell membranes; control vs GPR23-siRNA silenced
Experiment: [3H]-guanine radioligand saturation binding on U87 membranes; Bmax falls on GPR23 silencing

T1 sequence (Q99677 whole entry): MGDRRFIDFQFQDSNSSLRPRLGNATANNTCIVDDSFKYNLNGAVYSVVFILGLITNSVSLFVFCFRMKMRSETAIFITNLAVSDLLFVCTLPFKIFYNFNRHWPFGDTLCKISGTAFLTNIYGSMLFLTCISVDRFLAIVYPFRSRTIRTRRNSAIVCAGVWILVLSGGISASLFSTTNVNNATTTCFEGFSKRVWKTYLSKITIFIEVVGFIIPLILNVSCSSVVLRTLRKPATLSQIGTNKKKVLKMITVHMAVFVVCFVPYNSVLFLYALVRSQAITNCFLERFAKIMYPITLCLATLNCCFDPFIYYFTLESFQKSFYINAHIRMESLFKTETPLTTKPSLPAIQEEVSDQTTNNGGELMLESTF

With Nc1nc2nc[nH]c2c(=O)[nH]1 [GUA, guanine] the Kd was 29.4 ± 4.07 nM.

Source: PMC9527276, “Guanine inhibits the growth of human glioma and melanoma cell lines by interacting with GPR23” (Frontiers in Pharmacology, 2022)
